Columns and labels:
[1] = test system: MCF-7 cancer cells; experiment: Cell cycle analysis of MCF-7 cells by FACScan cytometry; type: cell-based, human; conditions: 0, 2.5, 5 and 10µg/mL, 72 hours (Fig. 9)
Procedure: (§1) 1×10^6 of rat C6 glioma cells were treated with various concentrations of NBM-HD-1 (0 µg/mL, 2.5 µg/mL, 5 µg/mL, and 10 µg/mL) for 72 hours. The treated cells were trysinized and collected. The cells were resuspended in 200 µL PBS and then fixed by adding 800 µL of cold 100% ethanol. The resulting cells were fixed overnight at -20[…]. The cell pellets were collected by centrifugation, resuspended in 1 mL of hypotonic buffer (0.5% Triton X-100 in PBS and 1 µg/mL RNase A), and incubated at 37 °C for 30 minutes. Then, 1 mL of PI solution (50 µg/mL) was added to the resulting cell pellets. The mixture was allowed to stand at 4[…] for 30 min. The DNA amounts of the cells were analyzed by FACScan Cytometry (Becton Dickinson) (see Fig. 2).
MCF-7 cancer cells (1×10^6) in a 100-mm dish were treated with various concentrations of NBM-HD-1 (0, 2.5, 5, and 10µg/mL) or 4mM sodium butyrate for 72 hours. The samples were prepared following the steps mentioned in [0063]. The DNA of the cells was then analyzed by FACScan cytometry (Becton Dickinson). […] The percentage of G0/G1 phase increased from 74.46 to 92.55 in a dose-dependent manner.

[2] = test system: p21; experiment: RT-PCR of p21 mRNA in MCF-7 cells; type: cell-based, human; conditions: different doses, 24 hours (Fig. 10)
Procedure: The cell cycle related to p21 mRNA expression was examined by RT-PCR. The total RNAs were isolated from the treated MCF-7 cells and used in the RT reaction. cDNA (1µl) was used as a template to amplify p21 gene by PCR. GAPDH was used as an internal control. […] In this experiment, MCF-7 cells were treated with different doses of NBM-HD-1 for 24 hours.

[3] = test system: cortical neurons; experiment: Neurite outgrowth of cortical neurons cultivated from fetal rat neural stem cells; type: cell-based, Wistar rat; conditions: 0.63 µg/mL
Procedure: The growth medium for the NSCs (neural stem cells) and cortical neurons was prepared by adding penicillin G, streptomycin and 0.5 mM of L-glutamine into a B-27 supplemented neurobasal medium (Gibco). The unborn fetus was taken out of the fetal sac in the abdominal cavity of a 17-day pregnant Wistar rat under anesthesia. The cerebral tissue was removed from the fetus and treated with 0.1 % trypsin solution at 25 °C for three minutes. After washing with PBS solution 3 times, the cells were dissociated by up and down mixing. The resulting solution was passed through a 70µm Nylon cell strainer (Falcon) in order to obtain the filtrate that contained cerebral cells. The filtrate was centrifuged at 1000 rpm for 10 minutes and the supernatant was aspirated. The resulting pellet was resuspended in the growth medium prepared as stated above. The resulting suspension contained NSCs.
The cells obtained from the suspension were cultivated in 6-well plates coated with 30 µg/ml of poly-D-lysine (Sigma) at the density of 75 cells/mm^2. The cells were cultured at 37 °C, 5% CO2 and 95% relative humidity. The growth media contained 0.63 µg/mL of NBM-HD-1 and the growth media with 1 µl of DMSO was used as the control. […]
After cultivation for 6 days, live cells were observed by microscope. The lengths of the neurites of the neurons in 6 different fields were measured and averaged. […]

[4] = test system: rat C6 glioma cells; experiment: Cell cycle analysis of C6 glioma cells, DNA content by PI staining and FACScan cytometry; type: cell-based; conditions: 0, 2.5, 5 and 10 µg/mL, 72 hours (Fig. 2)
Procedure: as §1

[5] = test system: GFAP; experiment: GFAP expression in C6 glioma cells (immuno-fluorescent staining and RT-PCR), differentiation marker; type: cell-based, rat
Procedure: After the C6 glioma cells were incubated with 10 µg/mL NBM-HD-1 for 24 hours, they were fixed and analyzed by the traditional immuno-fluorescent staining method. Staining of glia was carried out by using glial-specific GFAP antibody (SIGMA) as the primary antibody and a fluorescence labeled rabbit immuno-globulin (SIGMA) as the secondary antibody to bind with the primary antibody. The cells which are GFAP-positive were excited by a specific light source to emit fluorescence. Also, the nuclei were stained with DAPI. […] In contrast with the control group, more GFAP proteins were detected in the photos of the cells being treated with 10 µg/mL of NBM-HD-1.
The GFAP mRNA expression was examined by RT-PCR.

[6] = test system: acetylated histone H4; experiment: Western blotting of hyperacetylated histone H4 in C6 glioma cell lysates; type: cell-based, rat; conditions: C6 glioma cells
Procedure: Accumulation of hyperacetylated histone H4 was analyzed in the cell lysates by using Western Blotting and the antibody directed against acetylated histone H4 (Upstate). The C6 glioma cells were seeded at a density of 1×10^6 per 10cm culture dish. After 24 hours, the cells were treated with 10 µg/mL of NBM-HD-1 or 4mM sodium butyrate for several hours. The whole-cell lysates were prepared by using denaturing SDS sample buffer and then separated on 15% SDS-polyacrylamide gels. […] The amount of acetylated histones was hardly detectable in untreated C6 glioma cells. The amount of acetylated histone H4 of the cells treated with 4mM sodium butyrate for 2 hours increased. Sodium butyrate was then removed from the culture medium. After 6 hours, the amount of acetylated histone H4 decreased. The accumulation of acetylated histone H4 increased in the cells treated with NBM-HD-1 for 2 hours. […] The highest histone acetylation appeared at 6 hours after the compound had been removed. […] Because NBM-HD-1 is more hydrophobic than sodium butyrate, NBM-HD-1 can be retained in the cells longer than sodium butyrate and continuously induce the acetylation of histone H4.

[7] = test system: rat C6 glioma cells; experiment: Inhibition of growth of rat C6 glioma cells (observation and cell counting); type: cell-based; conditions: 2.5, 5 and 10 µg/mL, 48 hours; cell density and cell counting (Fig. 1)
Procedure: The cancer cell line, rat C6 glioma cells, was cultured in Dulbecco's modified Eagle's medium (DMEM; Gibco) supplemented with penicillin G, streptomycin sulphate, 0.5 mM of L-glutamine and 10% fetal bovine serum (FBS; Gibco) at 37 °C, 5% CO2 and 95% relative humidity. For all experiments, the cells were seeded at a density of 3×10^5 per well in 6-well plates. After 24 hours, the cells were treated with different concentrations of the compound NBM-HD-1 (i.e., the compound of formula III depicted herein). After 48 hours, the cells were observed and counted. According to the results shown in Fig. 1, NBM-HD-1 can arrest the growth of rat C6 glioma cells. After the C6 glioma cells were incubated with 2.5 µg/mL (see Fig. 1(A)-b), 5 µg/mL (see Fig. 1(A)-c) and 10 µg/mL (see Fig. 1(A)-d) of NBM-HD-1 for 48 hours, the density of the cells reduced dramatically in comparison with that of control (see Fig. 1(A)-a).

Q: Which “S and G2/M phases of the cells” value [1] does the source give for `COc1cc2c(c(OC)c1CCC(C)(C)O)C(=O)C[C@@H](c1ccc(OC)c(OC)c1C/C=C(\C)CCCC(C)(C)O)O2` [NBM-HD-1] here?
A: significantly decreased both S and G2/M phases of the cells in a dose-dependent manner

Q: And the “p21 mRNA expression” value [2]?
A: induced the expression of p21 in a dose-dependent manner

Q: And the “average length of the neurites” value ([3]; 6 days, 6 different fields, versus DMSO control (Fig. 12(B)))?
A: greater than that of the control group

Q: What about the neurite outgrowth ([3]; cultivation for 6 days (Fig. 12)) of the same molecule?
A: could promote the neurite outgrowth

Q: And the “cell cycle (DNA contents)” value [4]?
A: cell cycle arrest on the G0/G1 phase in a dose-dependent manner

Q: And the “GFAP expression (immuno-fluorescent staining)” value ([5]; 10 µg/mL, 24 hours (Fig. 4(A)))?
A: can induce the GFAP expression of C6 glioma cancer cells

Q: And the “GFAP mRNA expression” value ([5]; RT-PCR (Fig. 4(B)))?
A: increased in a dose-dependent manner

Q: What about the “accumulation of acetylated histone H4, treated for 2 hours” value ([6]; 10 µg/mL NBM-HD-1 or 4mM sodium butyrate, 2 hours (Fig. 5)) of the same molecule?
A: increased

Q: What about the “time of highest histone acetylation after the compound had been removed” value ([6]; 10 µg/mL, 2 hours treatment, then removal) of the same molecule?
A: 6 h

Q: And the “amount of acetylated histone H4 after removal of the compound from the culture medium” value ([6]; up to 6 hours after removal (Fig. 5))?
A: increased over time

Q: And the “growth of C6 glioma cells” value [7]?
A: can inhibit the growth of C6 glioma cells in a dose-dependent manner
